According to publication PMC1851987, “Identification of the Endogenous Key Substrates of the Human Organic Cation Transporter OCT2 and Their Implication in Function of Dopaminergic Neurons” (PLoS ONE, 2007):
Where a chain is given by its changes, count along the chain named.

How the values were obtained:
[1] = system: OCT2 (wild-type 400R); assay: MTT reduction cell viability assay, OCT2 (wild-type 400R) transfected HEK-293 cells; type: cell-based, human; conditions: human, HEK-293 cells transfected with OCT2 (wild-type 400R); 48 h exposure, no pretreatment; read-out: EC50 (95% confidence interval), cell viability
Description: (§1) Cell viability was assessed in HEK-293 cells, human dopaminergic neuroblastoma cells (SH-SY5Y) and human glioblastoma cells (HTZ-146) by the MTT test as described.[22] […] For indication of metabolic activity, cells were treated with MTT reagent (15 µl of 1 mg/ml stock solution per well) for 1 h, and after drying of culture plates for 1 h at 37°C, the resulting formazan dye was extracted with isopropanol/HCl (100 µl 0.04 mol/l per well) and absorbance was determined spectrophotometrically at 568 nm.

[2] = system: SH-SY5Y cells; assay: MTT reduction cell viability assay, SH-SY5Y cells; type: cell-based, human
Description: as §1, with “nm. Results were in agreement with the data obtained by the tryptan blue exclusion method (data not shown).” for “nm.”

[3] = molecular target: T1, OCT2 variant K432Q (Homo sapiens, UniProt O15244, K432Q/S270A); assay: Specific uptake into HEK-293 cells transfected with OCT2 variant K432Q
T1 sequence (O15244 1-555 S270A/K432Q): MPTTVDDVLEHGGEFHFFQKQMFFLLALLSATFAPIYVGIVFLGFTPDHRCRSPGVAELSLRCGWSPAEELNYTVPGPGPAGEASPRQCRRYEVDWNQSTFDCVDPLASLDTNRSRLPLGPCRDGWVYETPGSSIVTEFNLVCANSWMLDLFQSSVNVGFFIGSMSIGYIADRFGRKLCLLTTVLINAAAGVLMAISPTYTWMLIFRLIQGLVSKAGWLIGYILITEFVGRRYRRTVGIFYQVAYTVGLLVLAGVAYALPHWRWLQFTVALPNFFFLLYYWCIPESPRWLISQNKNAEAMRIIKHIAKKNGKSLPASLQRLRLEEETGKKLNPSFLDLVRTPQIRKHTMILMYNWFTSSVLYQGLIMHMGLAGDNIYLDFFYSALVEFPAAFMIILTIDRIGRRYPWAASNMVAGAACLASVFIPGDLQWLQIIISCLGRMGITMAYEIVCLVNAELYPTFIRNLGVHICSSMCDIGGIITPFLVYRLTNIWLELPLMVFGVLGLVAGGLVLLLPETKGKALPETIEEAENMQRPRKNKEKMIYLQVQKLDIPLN
Description: The cDNAs encoding the organic cation transporters OCT1 (GenBank accession no. NM_003057), OCT2 (NM_003058), and EMT (NM_021977) were amplified by RT-PCR from human liver, kidney, and placenta total RNA respectively, and subcloned into the eukaryotic expression vector pcDNA3. The cDNA encoding the norepinephrine transporter (SLC6A2) was kindly provided by C. Pifl (University of Vienna).
For uptake experiments, cells were grown on polystyrene dishes of 60 mm diameter to at least 80% confluence. […] Cells were lysed with 1 ml of 4 mmol/l perchloric acid and lysates subjected to LC-MS-MS quantification. Cellular protein content was determined after solubilization of perchloric acid precipitates with 1 ml of […] NaOH using the bicinchoninic assay (BCA Protein Assay Kit, Pierce).
Chromatographic separations were performed on Hypercarb (5 µm, 50×2.1 mm; Thermo Electron), Aquasil C18 (3 µm, 100×4.6 mm; Thermo Electron), or Hilic columns (5 µm, 100×3.0 mm; Waters Atlantis) by isocratic or gradient elution using 0.1% aqueous formic acid (A) and acetonitrile or methanol (B) as solvent system. For quantification, SRM transitions of a precursor ion [M+H]^+ into a specific fragment ion (peak area ratios relative to IS) were recorded in positive ESI mode at 1.0–1.5 mTorr collision pressure and 10–40 eV collision energy. […]

[4] = molecular target: T2, OCT2 (wild-type 400R) (Homo sapiens, UniProt O15244, S270A); assay: Specific uptake into OCT2 (wild-type) transfected HEK-293 cells vs empty vector, LC-MS-MS; conditions: human, pH 7.4
T2 sequence (O15244 1-555 S270A): T1 sequence (O15244 1-555 S270A/K432Q) with Q432K

[5] = system: HEK-293 cells expressing OCT2; assay: MTT reduction cell viability assay, OCT2 (wild-type 400R) transfected HEK-293 cells; type: cell-based, human; conditions: cyclo(his-pro) 10 µmol/l, 12 h prior to salsolinol treatment
Description: as §1

Clin ([3]; incubation with 10 µmol/l, mean (s.e.m.)) | Compound | EC50 at 48 h [1] | EC50 ([2]; Homo sapiens, SH-SY5Y, 48 h, non-pretreated, read-out: EC50 (95% confidence interval), cell viability) | Km at 1 min ([3]; human, pH 7.4) | Km at 1 min [4] | effect of pretreatment on salsolinol-induced degeneration [5] | effect on glutamate-induced cytotoxicity ([2]; pre-treated 1 h with 10 µmol/l cyclo(his-pro))
 | CC1NCCc2cc(O)c(O)cc21 (stereo not shown) [salsolinol] | 192 µM | 49 µM | 129 µM | 130 µM |  | 
26.0 (4.3) µl/mg/min | O=C1NC(Cc2c[nH]cn2)C(=O)N2CCCC12 (stereo not shown) [cyclo(his-pro), histidyl-proline diketopiperazine] |  |  |  |  | prevented degeneration | prevented
